# According to patent US10052320B2, “Substituted quinoxalines as FGFR kinase inhibitors” (ASTEX THERAPEUTICS LIMITED, priority 2011, dated 2018):
# Where two headings read alike, the source gives them in different places.
# Legend:
# [1] = tested on: Ba/F3-Flt3-transfected cells in the presence of 10 ng/ml murine IL3; assay: Ba/F3-Flt3 (plus IL3) cellular proliferation counterscreen, Alamar Blue; format: cell-based; conditions: Mus musculus, read-out: BAF3-FLT3 (PLUS IL3) 96 well pIC50 (converted)
# [2] = tested on: Ba/F3-FGFR1-transfected cells in the presence of 10 ng/ml murine IL3; assay: Ba/F3-FGFR1 (plus IL3) cellular proliferation counterscreen, Alamar Blue; format: cell-based; conditions: Mus musculus
# In short: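 Compound dilutions in DMSO are combined with transfected cells in phenol red-free RPMI-1640 containing 10% FBS and L-glutamine. Plates incubate 24 h at 37 °C and 5% CO2. Viability is then scored by 4 h Alamar Blue conversion, read as fluorescence (540 nm excitation, 590 nm emission).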
# [3] = tested on: Ba/F3-FGFR3-transfected cells in the presence of 10 ng/ml murine IL3; assay: Ba/F3-FGFR3 (plus IL3) cellular proliferation counterscreen, Alamar Blue; format: cell-based; conditions: Mus musculus
# In short: (§1)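 Cells are seeded with compound dilutions, incubated 24 h at 37 °C under 5% CO2, then given resazurin-based Alamar Blue for a further 4 h before fluorescence is measured. The plus-IL3 counterscreen repeats this with 10 ng/ml murine IL3.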
# [4] = biological target: Ba/F3-FGFR4-transfected cells (Homo sapiens, UniProt P22455); assay: Ba/F3-FGFR4 cellular proliferation assay, Alamar Blue; format: cell-based
# Ba/F3-FGFR4-transfected cells, sequence (P22455 whole entry, change not shown): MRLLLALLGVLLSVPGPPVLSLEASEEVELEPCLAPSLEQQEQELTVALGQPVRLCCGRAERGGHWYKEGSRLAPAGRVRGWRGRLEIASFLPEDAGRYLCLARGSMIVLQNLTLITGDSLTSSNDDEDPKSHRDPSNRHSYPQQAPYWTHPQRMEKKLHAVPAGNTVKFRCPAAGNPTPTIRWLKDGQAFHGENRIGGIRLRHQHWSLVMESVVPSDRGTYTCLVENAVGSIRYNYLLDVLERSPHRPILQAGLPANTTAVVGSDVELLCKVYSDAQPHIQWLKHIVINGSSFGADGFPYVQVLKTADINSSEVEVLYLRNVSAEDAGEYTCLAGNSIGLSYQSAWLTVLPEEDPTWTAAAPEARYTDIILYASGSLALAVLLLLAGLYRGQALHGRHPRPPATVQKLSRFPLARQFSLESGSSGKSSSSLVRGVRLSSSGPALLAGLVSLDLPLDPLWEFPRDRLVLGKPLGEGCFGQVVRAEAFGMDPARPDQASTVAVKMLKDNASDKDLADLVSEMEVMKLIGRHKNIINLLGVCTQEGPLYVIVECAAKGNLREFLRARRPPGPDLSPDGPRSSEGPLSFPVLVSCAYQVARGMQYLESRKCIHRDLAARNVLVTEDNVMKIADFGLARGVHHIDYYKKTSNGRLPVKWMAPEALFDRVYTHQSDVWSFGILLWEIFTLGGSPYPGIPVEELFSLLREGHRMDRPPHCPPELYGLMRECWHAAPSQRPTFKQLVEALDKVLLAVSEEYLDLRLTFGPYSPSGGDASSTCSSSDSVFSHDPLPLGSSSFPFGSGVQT
# In short: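 Alamar Blue fluorescence (540/590 nm, 4 h development) measured growth of FGFR4-transfected Ba/F3 cells after 24 h compound treatment at 37° C. Cells were seeded at 20000/well in RPMI-1640, 10% FBS.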
# [5] = biological target: Ba/F3-FGFR3-transfected cells (Homo sapiens, UniProt P22607); assay: Ba/F3-FGFR3 (minus IL3) cellular proliferation assay, Alamar Blue; format: cell-based; conditions: for BAF3-FGFR 3 (MIN IL3) 96 well pIC50: minus IL3, 96 well; for BAF3-FGFR 3 (MIN IL3) 384 well pIC50: minus IL3, 384 well
# Ba/F3-FGFR3-transfected cells, sequence (P22607 whole entry, change not shown): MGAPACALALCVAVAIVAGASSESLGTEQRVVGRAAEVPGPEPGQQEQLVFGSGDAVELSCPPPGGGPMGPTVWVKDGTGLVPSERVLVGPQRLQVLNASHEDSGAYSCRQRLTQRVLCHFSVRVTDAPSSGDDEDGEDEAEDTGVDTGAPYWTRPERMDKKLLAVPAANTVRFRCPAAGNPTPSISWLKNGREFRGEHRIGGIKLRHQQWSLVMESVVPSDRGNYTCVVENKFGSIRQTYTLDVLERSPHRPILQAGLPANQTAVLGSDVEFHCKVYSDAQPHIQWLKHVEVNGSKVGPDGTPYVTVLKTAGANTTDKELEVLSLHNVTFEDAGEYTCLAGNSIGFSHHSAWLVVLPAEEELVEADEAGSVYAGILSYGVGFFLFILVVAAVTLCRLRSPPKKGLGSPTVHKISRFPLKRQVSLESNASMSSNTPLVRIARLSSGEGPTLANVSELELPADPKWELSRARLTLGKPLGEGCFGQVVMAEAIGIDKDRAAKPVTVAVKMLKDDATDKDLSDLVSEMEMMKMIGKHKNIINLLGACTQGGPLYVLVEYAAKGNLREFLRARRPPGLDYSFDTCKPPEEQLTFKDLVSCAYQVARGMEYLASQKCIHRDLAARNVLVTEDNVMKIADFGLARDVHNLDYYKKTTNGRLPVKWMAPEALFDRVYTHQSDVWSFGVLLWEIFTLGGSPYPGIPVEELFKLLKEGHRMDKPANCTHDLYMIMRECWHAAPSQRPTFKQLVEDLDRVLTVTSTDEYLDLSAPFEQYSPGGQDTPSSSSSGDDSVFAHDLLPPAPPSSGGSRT
# In short: as §1
# [6] = biological target: FGFR2 (h) (Homo sapiens, UniProt P21802); assay: FGFR2 (enzymatic assay), TR-FRET; format: biochemical; conditions: read-out: FGFR 2 pIC50 (converted)
# FGFR2 (h), sequence (P21802 22-821): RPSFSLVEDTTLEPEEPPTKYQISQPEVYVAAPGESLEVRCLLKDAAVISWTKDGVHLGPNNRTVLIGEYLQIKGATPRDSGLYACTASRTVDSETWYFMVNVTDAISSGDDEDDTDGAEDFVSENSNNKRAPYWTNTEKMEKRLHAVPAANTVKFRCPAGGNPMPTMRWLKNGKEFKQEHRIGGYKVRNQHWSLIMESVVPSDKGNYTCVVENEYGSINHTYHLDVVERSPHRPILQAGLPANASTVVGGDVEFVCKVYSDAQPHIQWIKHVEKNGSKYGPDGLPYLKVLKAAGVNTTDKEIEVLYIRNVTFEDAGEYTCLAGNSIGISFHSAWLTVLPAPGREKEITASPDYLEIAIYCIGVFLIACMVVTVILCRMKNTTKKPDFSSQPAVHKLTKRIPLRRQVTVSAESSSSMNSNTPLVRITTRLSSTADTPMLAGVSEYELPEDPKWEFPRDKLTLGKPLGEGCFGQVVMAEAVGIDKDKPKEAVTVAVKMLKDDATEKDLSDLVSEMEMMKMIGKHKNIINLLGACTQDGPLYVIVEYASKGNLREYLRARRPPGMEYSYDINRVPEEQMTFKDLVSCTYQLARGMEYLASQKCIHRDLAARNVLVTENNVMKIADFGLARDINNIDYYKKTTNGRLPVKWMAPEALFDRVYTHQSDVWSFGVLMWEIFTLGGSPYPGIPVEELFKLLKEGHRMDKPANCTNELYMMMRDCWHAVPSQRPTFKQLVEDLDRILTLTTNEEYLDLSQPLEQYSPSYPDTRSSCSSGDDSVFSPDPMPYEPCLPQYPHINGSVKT
# Experimental: In a final reaction volume of 30 μL, FGFR2 (h) (150 ng/ml) was incubated with 50 mM HEPES pH 7.5, 6 mM MnCl2, 1 mM DTT, 0.1 mM Na3VO4, 0.01% Triton-X-100, 500 nM Btn-Flt3 and 0.4 μM ATP in the presence of compound (1% DMSO final). […] Time-Resolved Fluorescence Resonance Energy Transfer (TR-FRET) signal (ex340 nm. Em 620 nm, em 655 nm) was measured afterwards and results are expressed in (Relative Fluorescence Units).
# [7] = plus IL3, 96 well, read-out: BAF3-FGFR 1 (PLUS IL3) 96 well pIC50 (converted)
# [8] = plus IL3, 384 well, read-out: BAF3-FGFR 1 (PLUS IL3) 384 well pIC50 (converted)
# [9] = plus 10 ng/ml murine IL3, 384 well, read-out: BAF3-FGFR 3 (PLUS IL3) 384 well pIC50 (converted)
# [10] = plus IL3, 96 well, read-out: BAF3-FGFR 3 (PLUS IL3) 96 well pIC50 (converted)
BAF3-FGFR4 pIC50 [4],BAF3-FGFR 3 (MIN IL3) 96 well pIC50 [5],BAF3-FGFR 3 (MIN IL3) 384 well pIC50 [5],IC50 [6],SMILES,IC50 ([1]; plus 10 ng/ml murine IL3),"IC50 [2, 7]","IC50 [2, 8]","IC50 [3, 9]","IC50 [3, 10]","IC50 ([1]; plus IL3, 96 well)"
–,–,–,–,COc1cc(OC)cc(N(CC2CC2)c2ccc3ncc(-c4ccnn4C)nc3c2)c1 [Compound 18],> 10 µM,> 10 µM,> 10 µM,> 10 µM,> 10 µM,–
–,–,–,–,COc1cc(OC)cc(N(CC2CC2)c2ccc3ncc(-c4ccc5c(ccn5C)c4)nc3c2)c1 [Compound 20],–,–,> 10 µM,–,–,> 10 µM
–,–,–,–,COc1cc(OC)cc(N(CC2CC2)c2ccc3ncc(-c4cn(C)cn4)nc3c2)c1 [Compound 21],> 10 µM,> 10 µM,> 10 µM,–,–,–
<5,5.66,5.1,0.427 µM,COc1cc(OC)cc(N(CC2CC2)c2ccc3ncc(C#Cc4ccncc4)nc3c2)c1 [Compound 23],5.62 µM,5.89 µM,> 10 µM,–,–,–
~5.1,5.59,~5.7,0.0251 µM,COc1cc(OC)cc(N(CC2CC2)c2ccc3ncc(-c4cn(CCN5CCOCC5)nn4)nc3c2)c1 [Compound 24],> 10 µM,> 10 µM,> 10 µM,–,–,–
<5,<5,<5,> 1 µM,COc1cc(OC)cc(N(CC2CC2)c2ccc3ncc(-n4ccc(C)n4)nc3c2)c1 [Compound 31],> 10 µM,> 10 µM,> 10 µM,–,–,–
<5,<5,<5,0.575 µM,COc1cc(OC)cc(N(CC2CC2)c2ccc3ncc(-n4ccnc4C)nc3c2)c1 [Compound 32],> 10 µM,> 10 µM,> 10 µM,–,–,–
–,–,–,–,COc1cc(OC)cc(N(CC2CC2)c2ccc3ncc(-c4cc[nH]c4)nc3c2)c1 [Compound 36],> 10 µM,> 10 µM,> 10 µM,–,–,–
<5,<5,<5,0.178 µM,COc1cc(OC)cc(N(CC2CC2)c2ccc3ncc(-c4nnn[nH]4)nc3c2)c1 [Compound 41],> 10 µM,> 10 µM,> 10 µM,–,–,–
<5,5.65,~5.25,0.0479 µM,COc1cc(OC)cc(N(CC2CC2)c2ccc3ncc(-c4cnco4)nc3c2)c1 [Compound 55],> 10 µM,> 10 µM,> 10 µM,–,–,–
–,–,–,–,COc1cc(OC)cc(N(CC2CC2)c2ccc3ncc(-c4ccn(CCO)c4)nc3c2)c1 [Compound 56],> 10 µM,> 10 µM,> 10 µM,> 10 µM,> 10 µM,–
<5,5.56,–,0.537 µM,COc1cc(OC)cc(N(CC2CC2)c2ccc3ncc(-c4ccn[nH]4)nc3c2)c1 [Compound 58],> 10 µM,> 10 µM,> 10 µM,–,–,–
<5,<5,<5,1.41 µM,COc1cc(OC)cc(N(CC2CC2)c2ccc3ncc(-c4nccn4C)nc3c2)c1 [Compound 60],> 10 µM,> 10 µM,> 10 µM,–,–,–
–,–,–,–,COc1cc(OC)cc(N(CC2CC2)c2ccc3ncc(Nc4cnn(C)c4)nc3c2)c1 [Compound 61],6.76 µM,6.92 µM,> 10 µM,> 10 µM,3.98 µM,–
<5,<5,<5,> 1 µM,COc1cc(OC)cc(N(CC2CC2)c2ccc3ncc(-n4nccc4C)nc3c2)c1 [Compound 62],> 10 µM,> 10 µM,> 10 µM,–,–,–
<5,5.08,<5,> 1 µM,CCOC(=O)c1ncn(-c2cnc3ccc(N(CC4CC4)c4cc(OC)cc(OC)c4)cc3n2)c1C [Compound 65],> 10 µM,> 10 µM,> 10 µM,–,–,–
<5,<5,<5,0.166 µM,COc1cc(OC)cc(N(CC2CC2)c2ccc3ncc(-c4cn[nH]n4)nc3c2)c1 [Compound 69],> 10 µM,> 10 µM,> 10 µM,–,–,–
<5,<5,<5,0.479 µM,COc1cc(OC)cc(N(CC2CC2)c2ccc3ncc(-c4cnnn4C)nc3c2)c1 [Compound 72],> 10 µM,7.94 µM,> 10 µM,–,–,–
–,–,–,–,COc1cc(OC)cc(N(CC2CC2)c2ccc3ncc(-c4ccn(C)c4)nc3c2)c1 [Compound 73],> 10 µM,> 10 µM,> 10 µM,–,–,–
<5,5.18,<5,0.229 µM,COc1cc(OC)cc(N(CC2CC2)c2ccc3ncc(-c4nnn(C)n4)nc3c2)c1 [Compound 82],> 10 µM,–,–,–,–,–
<5,5.18,<5,~0.912 µM,COc1cc(OC)cc(N(CC2CC2)c2ccc3ncc(C(=O)NCCN4CCOCC4)nc3c2)c1 [Compound 96],> 10 µM,–,–,–,–,–
<5,<5,<5,2 µM,COc1cc(OC)cc(N(CC2CC2)c2ccc3ncc(-c4nccs4)nc3c2)c1 [Compound 97],> 10 µM,–,–,–,–,–
<5,<5,<5,0.676 µM,COc1cc(OC)cc(N(CC2CC2)c2ccc3ncc(Nc4nccs4)nc3c2)c1 [Compound 98],> 10 µM,–,–,–,–,–
<5,<5,<5,> 1 µM,COc1cc(OC)cc(N(CC2CC2)c2ccc3ncc(C(=O)NCc4ccc(F)cc4)nc3c2)c1 [Compound 101],> 10 µM,–,–,–,–,–
<5,<5,<5,> 1 µM,COc1cc(OC)cc(N(CC2CC2)c2ccc3ncc(Nc4nncs4)nc3c2)c1 [Compound 102],> 10 µM,–,–,–,–,–
<5,<5,<5,> 1 µM,COc1cc(OC)cc(N(CC2CC2)c2ccc3ncc(-c4cccn4C)nc3c2)c1 [Compound 103],> 10 µM,–,–,–,–,–
5.5,–,6.25,0.0224 µM,COc1cc(OC)cc(N(CCCO)c2ccc3ncc(-c4ccc(F)nc4)nc3c2)c1 [Compound 117],–,–,> 10 µM,> 10 µM,–,–
5.2,–,5.57,0.0257 µM,COc1cc(OC)cc(N(CCO)c2ccc3ncc(-c4ccnc(C(=O)NCCCN)c4)nc3c2)c1 [Compound 123],–,–,> 10 µM,> 10 µM,–,–
<5,–,<5,0.363 µM,COc1cc(OC)cc(N(CCCNCC(F)(F)F)c2ccc3ncc(-c4ccc(N(C)C(=O)OC(C)(C)C)nc4)nc3c2)c1 [Compound 127],–,–,> 10 µM,> 10 µM,–,–
<5,–,<5,0.135 µM,COc1cc(OC)cc(N(CCCO)c2ccc3ncc(-c4ccnc(NC(=O)OC(C)(C)C)c4)nc3c2)c1 [Compound 128],–,–,> 10 µM,> 10 µM,–,–
